{"source": "PubChem BioAssay (NCI)", "assay_in_all_cases": "NCI-60 cell line screen, 48 h", "key": {"[1]": {"test_system": "786-0 renal"}, "[2]": {"test_system": "MALME-3M melanoma"}, "[3]": {"test_system": "LOX IMVI melanoma"}, "[4]": {"test_system": "HOP-62 NSCLC"}, "[5]": {"test_system": "SW-620 colon"}, "[6]": {"test_system": "DMS 273 small cell lung"}, "[7]": {"test_system": "NCI-H23 lung"}, "[8]": {"test_system": "UACC-62 melanoma"}, "[9]": {"test_system": "DLD-1 colon"}, "[10]": {"test_system": "SNB-75 CNS"}, "[11]": {"test_system": "M19-MEL melanoma"}, "[12]": {"test_system": "HL-60(TB) leukemia"}, "[13]": {"test_system": "SNB-19 CNS"}, "[14]": {"test_system": "ACHN renal"}, "[15]": {"test_system": "LXFL 529 NSCLC"}, "[16]": {"test_system": "HOP-92 NSCLC"}, "[17]": {"test_system": "SN12C renal"}, "[18]": {"test_system": "UACC-257 melanoma"}, "[19]": {"test_system": "SK-MEL-28 melanoma"}, "[20]": {"test_system": "SF-268 CNS"}, "[21]": {"test_system": "UO-31 renal"}, "[22]": {"test_system": "SR leukemia"}, "[23]": {"test_system": "IGROV1 ovarian"}, "[24]": {"test_system": "U251 CNS"}, "[25]": {"test_system": "HCC-2998 colon"}, "[26]": {"test_system": "HOP-18 NSCLC"}, "[27]": {"test_system": "NCI-H226 lung"}, "[28]": {"test_system": "MOLT-4 leukemia"}, "[29]": {"test_system": "RPMI-8226 leukemia"}, "[30]": {"test_system": "A549 NSCLC"}, "[31]": {"test_system": "SK-MEL-2 melanoma"}, "[32]": {"test_system": "EKVX NSCLC"}, "[33]": {"test_system": "OVCAR-8 ovarian"}, "[34]": {"test_system": "SNB-78 CNS"}, "[35]": {"test_system": "HT29 colon"}, "[36]": {"test_system": "COLO 205 colon"}, "[37]": {"test_system": "SF-295 CNS"}, "[38]": {"test_system": "XF 498 CNS"}, "[39]": {"test_system": "RXF 393 renal"}, "[40]": {"test_system": "OVCAR-3 ovarian"}, "[41]": {"test_system": "NCI-H460 lung"}, "[42]": {"test_system": "CCRF-CEM leukemia"}, "[43]": {"test_system": "TK-10 renal"}, "[44]": {"test_system": "SK-OV-3 ovarian"}, "[45]": {"test_system": "OVCAR-5 ovarian"}, "[46]": {"test_system": "SF-539 CNS"}, "[47]": {"test_system": "RXF-631 renal"}, "[48]": {"test_system": "HCT-15 colon"}, "[49]": {"test_system": "KM20L2 colon"}, "[50]": {"test_system": "KM12 colon"}, "[51]": {"test_system": "SK-MEL-5 melanoma"}, "[52]": {"test_system": "K-562 leukemia"}, "[53]": {"test_system": "A498 renal"}, "[54]": {"test_system": "OVCAR-4 ovarian"}, "[55]": {"test_system": "HCT-116 colon"}, "[56]": {"test_system": "CAKI-1 renal"}, "[57]": {"test_system": "M14 melanoma"}}, "note": "“And” between values parts separate entries of the source, which are not always exact repeats. Equal entries are not always repeated.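 Test compounds were applied to cells in 96-well plates for 48 hours at 5 doses. GI50 = concentration required for 50% inhibition of growth. The concentration for full growth arrest is given as TGI.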"}
{"smiles": "COC1CC(OC2C(C)OC(OC3C(C)OC(OC4CCC5(C)C(=CCC6(O)C5CC(OC(=O)c5ccc(O)cc5)C5(C)C(O)(C(C)=O)CCC65O)C4)CC3OC)CC2OC)OC(C)C1O", "note": "(configuration not stated) (tested in a mixture with another compound)", "values": [{"measurement": "TGI", "setting": "[1]", "value": 57.1, "unit": "µM"}, {"measurement": "TGI", "setting": "[2]", "value": 74.6, "unit": "µM"}, {"measurement": "TGI", "setting": "[3]", "value": 34.8, "unit": "µM"}, {"measurement": "TGI", "setting": "[4]", "value": "> 100", "unit": "µM"}, {"measurement": "TGI", "setting": "[5]", "value": "> 100", "unit": "µM"}, {"measurement": "TGI", "setting": "[6]", "value": "> 100", "unit": "µM"}, {"measurement": "TGI", "setting": "[7]", "value": 81.6, "unit": "µM"}, {"measurement": "TGI", "setting": "[8]", "value": 52.7, "unit": "µM"}, {"measurement": "TGI", "setting": "[9]", "value": "> 100", "unit": "µM"}, {"measurement": "TGI", "setting": "[10]", "value": "> 100", "unit": "µM"}, {"measurement": "TGI", "setting": "[11]", "value": "> 100", "unit": "µM"}, {"measurement": "TGI", "setting": "[12]", "value": 46.9, "unit": "µM"}, {"measurement": "TGI", "setting": "[13]", "value": "> 100", "unit": "µM"}, {"measurement": "TGI", "setting": "[14]", "value": "> 100", "unit": "µM"}, {"measurement": "TGI", "setting": "[15]", "value": 78.4, "unit": "µM"}, {"measurement": "TGI", "setting": "[16]", "value": 59.5, "unit": "µM"}, {"measurement": "TGI", "setting": "[17]", "value": "> 100", "unit": "µM"}, {"measurement": "TGI", "setting": "[18]", "value": 51.3, "unit": "µM"}, {"measurement": "TGI", "setting": "[19]", "value": "> 100", "unit": "µM"}, {"measurement": "TGI", "setting": "[20]", "value": "> 100", "unit": "µM"}, {"measurement": "TGI", "setting": "[21]", "value": 75, "unit": "µM"}, {"measurement": "TGI", "setting": "[22]", "value": 76.5, "unit": "µM"}, {"measurement": "TGI", "setting": "[23]", "value": "> 100", "unit": "µM"}, {"measurement": "TGI", "setting": "[24]", "value": 57.5, "unit": "µM"}, {"measurement": "TGI", "setting": "[25]", "value": 60.5, "unit": "µM"}, {"measurement": "TGI", "setting": "[26]", "value": "> 100", "unit": "µM"}, {"measurement": "TGI", "setting": "[27]", "value": "> 100", "unit": "µM"}, {"measurement": "TGI", "setting": "[28]", "value": 82.2, "unit": "µM"}, {"measurement": "TGI", "setting": "[29]", "value": 95.8, "unit": "µM"}, {"measurement": "TGI", "setting": "[30]", "value": "> 100", "unit": "µM"}, {"measurement": "TGI", "setting": "[31]", "value": 45.3, "unit": "µM"}, {"measurement": "TGI", "setting": "[32]", "value": "> 100", "unit": "µM"}, {"measurement": "TGI", "setting": "[33]", "value": 82.5, "unit": "µM"}, {"measurement": "TGI", "setting": "[34]", "value": 57.2, "unit": "µM"}, {"measurement": "TGI", "setting": "[35]", "value": "> 100", "unit": "µM"}, {"measurement": "TGI", "setting": "[36]", "value": 55.3, "unit": "µM"}, {"measurement": "TGI", "setting": "[37]", "value": "> 100", "unit": "µM"}, {"measurement": "TGI", "setting": "[38]", "value": 9.05, "unit": "µM"}, {"measurement": "TGI", "setting": "[39]", "value": "> 100", "unit": "µM"}, {"measurement": "TGI", "setting": "[40]", "value": 57.2, "unit": "µM"}, {"measurement": "TGI", "setting": "[41]", "value": "> 100", "unit": "µM"}, {"measurement": "TGI", "setting": "[42]", "value": 92.7, "unit": "µM"}, {"measurement": "TGI", "setting": "[43]", "value": "> 100", "unit": "µM"}, {"measurement": "TGI", "setting": "[44]", "value": "> 100", "unit": "µM"}, {"measurement": "TGI", "setting": "[45]", "value": "> 100", "unit": "µM"}, {"measurement": "TGI", "setting": "[46]", "value": 72.6, "unit": "µM"}, {"measurement": "TGI", "setting": "[47]", "value": "> 100", "unit": "µM"}, {"measurement": "TGI", "setting": "[48]", "value": "> 100", "unit": "µM"}]}
{"smiles": "CCOc1ccc(/C=C\\c2cc(OC)c(OC)c(OC)c2)cc1", "values": [{"measurement": "TGI", "setting": "[1]", "value": "> 100", "unit": "µM"}, {"measurement": "TGI", "setting": "[49]", "value": 0.00113, "unit": "µM"}, {"measurement": "TGI", "setting": "[3]", "value": "> 100", "unit": "µM"}, {"measurement": "GI50", "setting": "[50]", "value": 0.0172, "unit": "µM"}, {"measurement": "TGI", "setting": "[50]", "value": 0.185, "unit": "µM"}, {"measurement": "TGI", "setting": "[5]", "value": "> 100", "unit": "µM"}, {"measurement": "TGI", "setting": "[7]", "value": 0.111, "unit": "µM"}, {"measurement": "TGI", "setting": "[8]", "value": "> 100", "unit": "µM"}, {"measurement": "GI50", "setting": "[9]", "value": 0.0292, "unit": "µM"}, {"measurement": "TGI", "setting": "[9]", "value": "> 100", "unit": "µM"}, {"measurement": "TGI", "setting": "[10]", "value": 0.000226, "unit": "µM"}, {"measurement": "TGI", "setting": "[11]", "value": "> 100", "unit": "µM"}, {"measurement": "TGI", "setting": "[12]", "value": "0.00354 µM and 0.0155 µM"}, {"measurement": "TGI", "setting": "[14]", "value": "> 100", "unit": "µM"}, {"measurement": "TGI", "setting": "[51]", "value": 0.117, "unit": "µM"}, {"measurement": "TGI", "setting": "[16]", "value": 0.0512, "unit": "µM"}, {"measurement": "TGI", "setting": "[17]", "value": 60.5, "unit": "µM"}, {"measurement": "TGI", "setting": "[18]", "value": 98.6, "unit": "µM"}, {"measurement": "TGI", "setting": "[19]", "value": "> 100", "unit": "µM"}, {"measurement": "TGI", "setting": "[20]", "value": "> 100", "unit": "µM"}, {"measurement": "TGI", "setting": "[52]", "value": "> 100", "unit": "µM"}, {"measurement": "TGI", "setting": "[53]", "value": 0.0248, "unit": "µM"}, {"measurement": "GI50", "setting": "[54]", "value": 0.403, "unit": "µM"}, {"measurement": "TGI", "setting": "[54]", "value": "> 100", "unit": "µM"}, {"measurement": "GI50", "setting": "[23]", "value": 0.0317, "unit": "µM"}, {"measurement": "TGI", "setting": "[23]", "value": "> 100", "unit": "µM"}, {"measurement": "TGI", "setting": "[24]", "value": "0.0132 µM and 0.0341 µM"}, {"measurement": "GI50", "setting": "[26]", "value": "> 100", "unit": "µM"}, {"measurement": "TGI", "setting": "[26]", "value": "> 100", "unit": "µM"}, {"measurement": "TGI", "setting": "[27]", "value": "0.0223 µM and 0.024 µM"}, {"measurement": "TGI", "setting": "[28]", "value": 17.8, "unit": "µM"}, {"measurement": "TGI", "setting": "[29]", "value": 5.03, "unit": "µM"}, {"measurement": "TGI", "setting": "[30]", "value": "> 100", "unit": "µM"}, {"measurement": "TGI", "setting": "[55]", "value": 0.152, "unit": "µM"}, {"measurement": "TGI", "setting": "[32]", "value": "> 100", "unit": "µM"}, {"measurement": "TGI", "setting": "[34]", "value": "> 100", "unit": "µM"}, {"measurement": "TGI", "setting": "[36]", "value": 0.399, "unit": "µM"}, {"measurement": "TGI", "setting": "[37]", "value": 0.000209, "unit": "µM"}, {"measurement": "TGI", "setting": "[38]", "value": 0.0917, "unit": "µM"}, {"measurement": "TGI", "setting": "[56]", "value": 18.6, "unit": "µM"}, {"measurement": "TGI", "setting": "[39]", "value": 0.000904, "unit": "µM"}, {"measurement": "TGI", "setting": "[57]", "value": "> 100", "unit": "µM"}, {"measurement": "TGI", "setting": "[42]", "value": 91.3, "unit": "µM"}, {"measurement": "TGI", "setting": "[43]", "value": "> 100", "unit": "µM"}, {"measurement": "TGI", "setting": "[45]", "value": 61.7, "unit": "µM"}, {"measurement": "TGI", "setting": "[46]", "value": 0.000685, "unit": "µM"}, {"measurement": "TGI", "setting": "[47]", "value": "> 100", "unit": "µM"}, {"measurement": "GI50", "setting": "[48]", "value": 0.0322, "unit": "µM"}, {"measurement": "TGI", "setting": "[48]", "value": 0.286, "unit": "µM"}]}
